Assay results: patent US12435092B2, “Substituted imidazo[1,2-A]quinazolines as inhibitors of PARG” (858 Therapeutics, Inc., priority 2022, dated 2025)

Target: T1, cellular PARG (Homo sapiens, UniProt Q86W56)
T1 construct: endogenous in cells; host or cells: HeLa
Assay: Nuclear PAR accumulation assay (immunofluorescence high-content imaging)
Format: cell-based
Settings: HeLa cells, 1 hour compound treatment then MMS 50 μg/mL for an additional hour
Description: Compound IC50 values for inhibition of cellular PARG were determined using an immunofluorescence high-content imaging assay for nuclear PAR accumulation. HeLa cells were plated at 15,000 cells/well in a 96-well plate the day before compound treatment and then treated with varying concentrations of test compound and incubated for 1 hour at 37° C.+5% CO2. Following test compound treatment, methylmethane sulfonate (MMS) was added to a final concentration of 50 μg/mL and the cells were incubated for an additional hour. Following treatment, the cells were fixed with ice cold 95% methanol and the plates sealed and placed at −20° C. for 15 minutes. The cells were then washed once with phosphate buffered saline (PBS) and permeabilized with 0.1% Triton-X 100 for 20 minutes at room temperature. The cells were again washed once with PBS and incubated with an anti-poly-ADP ribose (PAR) monoclonal antibody (Millipore Part #AM80 clone 10H) diluted 1:1,000 in 5% fetal bovine serum +0.1% Tween-20+PBS overnight at 4° C. The cells were then washed three times with PBS before incubation with a fluorescently conjugated goat anti-mouse antibody (Invitrogen A32723) diluted 1:500 in 5% FBS+0.1% Tween-20+PBS for 1 hour at room temperature. The cells were again washed three times with PBS and the nuclei labeled by incubating with 1 μg/mL DAPI (4′,6-diamidino-2-phenylindole). Nuclear PAR accumulation was evaluated using high-content fluorescence microscopy. Four fields for each well were acquired at 20× magnification resulting in at least 1,000 cells analyzed per well. Using high-content software (CellReporterXpress) the nuclei were detected and segmented using the DAPI channel and the fluorescence intensity of the PAR-Alexa 488 channel was quantified within the nuclei regions. Both the average intensity per nucleus and percent PAR positive cells were quantified. Percent PAR positive cells were identified by having greater anti-PAR labeling above the threshold set with vehicle DMSO treated control cells. Percent inhibition of PARG by test compounds was calculated by normalizing the data to the 0.1% DMSO and reference compound control values, which represent 0% and 100% inhibition of enzymatic activity, respectively. Concentration-response-curves and IC50 values were generated using four parameter logistic curve fit software.

T1 sequence (Q86W56 whole entry): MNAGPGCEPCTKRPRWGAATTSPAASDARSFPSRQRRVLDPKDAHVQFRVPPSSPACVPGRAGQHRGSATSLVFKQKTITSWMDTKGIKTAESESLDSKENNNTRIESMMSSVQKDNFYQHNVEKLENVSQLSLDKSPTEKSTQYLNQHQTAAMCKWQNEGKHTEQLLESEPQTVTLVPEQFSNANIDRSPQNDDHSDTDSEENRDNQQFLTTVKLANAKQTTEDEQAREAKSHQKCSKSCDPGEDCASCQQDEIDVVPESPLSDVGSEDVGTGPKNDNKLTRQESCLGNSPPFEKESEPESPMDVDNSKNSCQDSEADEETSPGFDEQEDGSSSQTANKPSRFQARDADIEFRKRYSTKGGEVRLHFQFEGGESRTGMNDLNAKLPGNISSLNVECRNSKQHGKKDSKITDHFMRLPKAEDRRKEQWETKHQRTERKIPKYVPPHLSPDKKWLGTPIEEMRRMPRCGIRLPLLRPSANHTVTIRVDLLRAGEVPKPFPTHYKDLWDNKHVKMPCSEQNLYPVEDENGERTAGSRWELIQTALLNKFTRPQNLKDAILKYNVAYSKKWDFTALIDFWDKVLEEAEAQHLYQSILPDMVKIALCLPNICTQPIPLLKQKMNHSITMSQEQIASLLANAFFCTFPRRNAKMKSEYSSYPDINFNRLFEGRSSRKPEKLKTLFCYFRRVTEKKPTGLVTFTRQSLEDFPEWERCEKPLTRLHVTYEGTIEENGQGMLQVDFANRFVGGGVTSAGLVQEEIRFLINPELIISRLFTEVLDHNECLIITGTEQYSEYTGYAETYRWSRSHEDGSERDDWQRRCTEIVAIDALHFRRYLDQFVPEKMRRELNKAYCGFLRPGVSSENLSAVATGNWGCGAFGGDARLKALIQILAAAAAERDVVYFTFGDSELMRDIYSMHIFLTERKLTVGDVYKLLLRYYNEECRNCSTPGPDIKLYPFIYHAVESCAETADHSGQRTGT

Row | SMILES | IC50 [nM]
1 | CCN1C(=O)c2cc(S(=O)(=O)NC3(C)CC3)ccc2N2C1=NC[C@H]2C1CC1 [Example 26, (R)-1-cyclopropyl-4-ethyl-N-(1-methylcyclopropyl)-5-oxo-1,2,4,5-tetrahydroimidazo[1,2-a]quinazoline-7-sulfonamide] | 100 to 1000
2 | C#C[C@H]1CN=C2N(CC)C(=O)c3cc(S(=O)(=O)NC4(C)CC4)ccc3N21 [Example 27, (S)-4-ethyl-1-ethynyl-N-(1-methylcyclopropyl)-5-oxo-1,2,4,5-tetrahydroimidazo[1,2-a]quinazoline-7-sulfonamide] | 1000 to 10000
3 | C#C[C@@H]1CN=C2N(CC)C(=O)c3cc(S(=O)(=O)NC4(C)CC4)ccc3N21 [Example 28, (R)-4-ethyl-1-ethynyl-N-(1-methylcyclopropyl)-5-oxo-1,2,4,5-tetrahydroimidazo[1,2-a]quinazoline-7-sulfonamide] | 100 to 1000
4 | CC[C@H]1CN=C2N(Cc3cnc(C)s3)C(=O)c3cc(S(=O)(=O)NC4(C)CC4)ccc3N21 [Example 29, (S)-1-ethyl-N-(1-methylcyclopropyl)-4-((2-methylthiazol-5-yl)methyl)-5-oxo-1,2,4,5-tetrahydroimidazo[1,2-a]quinazoline-7-sulfonamide] | 1000 to 10000
5 | C#C[C@H]1CN=C2N(Cc3cnn(C)c3)C(=O)c3cc(S(=O)(=O)NC4(C)CC4)ccc3N21 [Example 33, (S)-1-ethynyl-4-((1-methyl-1H-pyrazol-4-yl)methyl)-N-(1-methylcyclopropyl)-5-oxo-1,2,4,5-tetrahydroimidazo[1,2-a]quinazoline-7-sulfonamide] | 100 to 1000
6 | Cn1cc(CN2C(=O)c3cc(S(=O)(=O)NC4(C)CC4)ccc3N3C2=NC[C@@H]3C2CC2)cn1 [Example 36, (S)-1-cyclopropyl-4-((1-methyl-1H-pyrazol-4-yl)methyl)-N-(1-methylcyclopropyl)-5-oxo-1,2,4,5-tetrahydroimidazo[1,2-a]quinazoline-7-sulfonamide] | 100 to 1000
7 | CCN1C(=O)c2cc(S(=O)(=O)NC3(C)CC3)ccc2N2C1=NC[C@@H]2C(C)C [Example 37, (S)-4-ethyl-1-isopropyl-N-(1-methylcyclopropyl)-5-oxo-1,2,4,5-tetrahydroimidazo[1,2-a]quinazoline-7-sulfonamide] | > 10000
8 | CCN1C(=O)c2cc(S(=O)(=O)NC3(C)CC3)ccc2N2C1=NC[C@H]2C(C)C [Example 38, (R)-4-ethyl-1-isopropyl-N-(1-methylcyclopropyl)-5-oxo-1,2,4,5-tetrahydroimidazo[1,2-a]quinazoline-7-sulfonamide] | 100 to 1000
9 | CC(C)[C@H]1CN=C2N(Cc3cnn(C)c3)C(=O)c3cc(S(=O)(=O)NC4(C)CC4)ccc3N21 [Example 39, (S)-1-isopropyl-4-((1-methyl-1H-pyrazol-4-yl)methyl)-N-(1-methylcyclopropyl)-5-oxo-1,2,4,5-tetrahydroimidazo[1,2-a]quinazoline-7-sulfonamide] | 1000 to 10000
10 | CC[C@H]1CN=C2N(CC)C(=O)c3cc(S(=O)(=O)NC4(C)CC4)ccc3N21 [Example 41, (S)-1,4-diethyl-N-(1-methylcyclopropyl)-5-oxo-1,2,4,5-tetrahydroimidazo[1,2-a]quinazoline-7-sulfonamide] | > 10000
11 | CC[C@@H]1CN=C2N(CC)C(=O)c3cc(S(=O)(=O)NC4(C)CC4)ccc3N21 [Example 42, (R)-1,4-diethyl-N-(1-methylcyclopropyl)-5-oxo-1,2,4,5-tetrahydroimidazo[1,2-a]quinazoline-7-sulfonamide] | 100 to 1000
12 | C#CC1CN=C2N(C)C(=O)c3cc(S(=O)(=O)NC4(C)CC4)ccc3N21 (stereo not shown) [Example 43, 1-ethynyl-4-methyl-N-(1-methylcyclopropyl)-5-oxo-1,2,4,5-tetrahydroimidazo[1,2-a]quinazoline-7-sulfonamide] | 100 to 1000
13 | CC[C@H]1CN=C2N(Cc3cnn(C)c3)C(=O)c3cc(S(=O)(=O)NC4(C)CC4)ccc3N21 [Example 44, (S)-1-ethyl-4-((1-methyl-1H-pyrazol-4-yl)methyl)-N-(1-methylcyclopropyl)-5-oxo-1,2,4,5-tetrahydroimidazo[1,2-a]quinazoline-7-sulfonamide] | 100 to 1000
14 | CCN1C(=O)c2cc(S(=O)(=O)NC3(C)CC3)ccc2N2C1=NC[C@H]2C [Example 47, (R)-4-ethyl-1-methyl-N-(1-methylcyclopropyl)-5-oxo-1,2,4,5-tetrahydroimidazo[1,2-a]quinazoline-7-sulfonamide] | 100 to 1000

Second part, the molecule after the results:

Row | IC50 [nM] | SMILES
15 | ≤ 100 | CC[C@@H]1CN=C2N(Cc3cnc(C)s3)C(=O)c3cc(S(=O)(=O)NC4(C)CC4)ccc3N21 [Example 30, (R)-1-ethyl-N-(1-methylcyclopropyl)-4-((2-methylthiazol-5-yl)methyl)-5-oxo-1,2,4,5-tetrahydroimidazo[1,2-a]quinazoline-7-sulfonamide]
16 | ≤ 100 | Cc1ncc(CN2C(=O)c3cc(S(=O)(=O)NC4(C)CC4)ccc3N3C2=NC[C@H]3C)s1 [Example 31, (R)-1-methyl-N-(1-methylcyclopropyl)-4-((2-methylthiazol-5-yl)methyl)-5-oxo-1,2,4,5-tetrahydroimidazo[1,2-a]quinazoline-7-sulfonamide]
17 | ≤ 100 | Cc1cc(CN2C(=O)c3cc(S(=O)(=O)NC4(C)CC4)ccc3N3C2=NC[C@H]3C)on1 [Example 32, (R)-1-methyl-N-(1-methylcyclopropyl)-4-((3-methylisoxazol-5-yl)methyl)-5-oxo-1,2,4,5-tetrahydroimidazo[1,2-a]quinazoline-7-sulfonamide]
18 | ≤ 100 | C#C[C@@H]1CN=C2N(Cc3cnn(C)c3)C(=O)c3cc(S(=O)(=O)NC4(C)CC4)ccc3N21 [Example 34, (R)-1-ethynyl-4-((1-methyl-1H-pyrazol-4-yl)methyl)-N-(1-methylcyclopropyl)-5-oxo-1,2,4,5-tetrahydroimidazo[1,2-a]quinazoline-7-sulfonamide]
19 | ≤ 100 | Cn1cc(CN2C(=O)c3cc(S(=O)(=O)NC4(C)CC4)ccc3N3C2=NC[C@H]3C2CC2)cn1 [Example 35, (R)-1-cyclopropyl-4-((1-methyl-1H-pyrazol-4-yl)methyl)-N-(1-methylcyclopropyl)-5-oxo-1,2,4,5-tetrahydroimidazo[1,2-a]quinazoline-7-sulfonamide]
20 | ≤ 100 | CC(C)[C@@H]1CN=C2N(Cc3cnn(C)c3)C(=O)c3cc(S(=O)(=O)NC4(C)CC4)ccc3N21 [Example 40, (R)-1-isopropyl-4-((1-methyl-1H-pyrazol-4-yl)methyl)-N-(1-methylcyclopropyl)-5-oxo-1,2,4,5-tetrahydroimidazo[1,2-a]quinazoline-7-sulfonamide]
21 | ≤ 100 | CC[C@@H]1CN=C2N(Cc3cnn(C)c3)C(=O)c3cc(S(=O)(=O)NC4(C)CC4)ccc3N21 [Example 45, (R)-1-ethyl-4-((1-methyl-1H-pyrazol-4-yl)methyl)-N-(1-methylcyclopropyl)-5-oxo-1,2,4,5-tetrahydroimidazo[1,2-a]quinazoline-7-sulfonamide]
22 | ≤ 100 | C[C@@H]1CN=C2N(Cc3cnn(C)c3)C(=O)c3cc(S(=O)(=O)NC4(C)CC4)ccc3N21 [Example 46, (R)-1-methyl-4-((1-methyl-1H-pyrazol-4-yl)methyl)-N-(1-methylcyclopropyl)-5-oxo-1,2,4,5-tetrahydroimidazo[1,2-a]quinazoline-7-sulfonamide]
